Structures can show the parent of a compound that is named as a salt. Where two headings read alike, the source gives them in different places.
Target: SARS-CoV-2 3CLpro (Severe acute respiratory syndrome coronavirus 2, UniProt P0DTD1)
Assay: biochemical
Type: biochemical
Set-up: Replicate_1 / Replicate_2 / mean / mean (LOPAC_screen_w_protease): unit not given here
Conditions: for inhibition at 5 µM: 4 h
[1] = sheet LOPAC_screen_w_protease, primary screen with protease, 5 µM, mean of two replicates
[2] = sheet LOPAC_screen_w_protease, primary screen with protease, 5 µM, replicate 1
[3] = sheet LOPAC_screen_w_protease, primary screen with protease, 5 µM, replicate 2
[4] = sheet LOPAC_screen_w_protease, primary screen with protease, 5 µM, mean of two replicates, read-out: mean
[5] = sheet LOPAC_screen_w_protease, primary screen with protease, 5 µM, replicate 1, read-out: Replicate_1
[6] = sheet LOPAC_screen_w_protease, primary screen with protease, 5 µM, replicate 2, read-out: Replicate_2
[7] = sheet LOPAC_screen_w_protease, LOPAC1280 primary screen at 5 µM, with protease, replicate 1, read-out: Replicate_1
[8] = sheet LOPAC_screen_w_protease, LOPAC1280 primary screen at 5 µM, with protease, replicate 2, read-out: Replicate_2
[9] = LOPAC1280 primary screen with protease, 5 µM compound, mean of two replicates
[10] = LOPAC1280 primary screen with protease, 5 µM compound, replicate 1
[11] = LOPAC1280 primary screen with protease, 5 µM compound, replicate 2

**Q.** Which results are given for `CCN(CC)CCCCCCCCOC(=O)c1cc(OC)c(OC)c(OC)c1.Cl` [TMB-8 hydrochloride]?
**A.** mean [1]: -0.545; Replicate_1 [2]: 0.4949; Replicate_2 [3]: -1.585

**Q.** With `CP(=O)(O)C1=CCNCC1` [TPMPA] as the molecule, how does the mean [1] read?
**A.** 0.264

**Q.** What about the Replicate_1 [2] of the same molecule?
**A.** -0.09904

**Q.** And the Replicate_2 [3]?
**A.** 0.6269

**Q.** `C/C(=C\c1ccc(C(=O)O)cc1)c1ccc2c(c1)C(C)(C)CCC2(C)C` [TTNPB] was tested. Which mean (sheet LOPAC_screen_w_protease, primary screen of LOPAC1280 at 5 µM with protease, mean of the two replicates) did it give?
**A.** 3.657

**Q.** And the Replicate_1 (sheet LOPAC_screen_w_protease, primary screen of LOPAC1280 at 5 µM with protease, replicate 1)?
**A.** 5.544

**Q.** What about the Replicate_2 (sheet LOPAC_screen_w_protease, primary screen of LOPAC1280 at 5 µM with protease, replicate 2) of the same molecule?
**A.** 1.7694

**Q.** With `NCCS(=O)(=O)O` [Taurine] as the molecule, how does the inhibition at 5 µM (LOPAC1280 primary screen with protease, 5 µM compound, replicate 1, read-out: Replicate_1 (LOPAC_screen_w_protease)) read?
**A.** 2.66%

**Q.** And the inhibition at 5 µM (LOPAC1280 primary screen with protease, 5 µM compound, replicate 2, read-out: Replicate_2 (LOPAC_screen_w_protease))?
**A.** 1.18%

**Q.** What about the “mean (LOPAC_screen_w_protease)” value (LOPAC1280 primary screen with protease, 5 µM compound, mean of the two replicates) of the same molecule?
**A.** 1.917

**Q.** `Cc1scc2c1N(C(=O)CN1CCN(C)CC1)c1ccccc1NC2=O` [Telenzepine dihydrochloride] was tested. Which inhibition at 5 µM [4] did it give?
**A.** 0.413%

**Q.** What about the inhibition at 5 µM [5] of the same molecule?
**A.** -0.915%

**Q.** And the inhibition at 5 µM [6]?
**A.** 1.74%

**Q.** What does the source list for `CC(C)(C)NCC(O)c1cc(O)cc(O)c1.CC(C)(C)NCC(O)c1cc(O)cc(O)c1.O=S(=O)(O)O` (stereo not drawn) [Terbutaline hemisulfate]?
**A.** mean (sheet LOPAC_screen_w_protease, LOPAC1280 at 5 µM, mean of two replicates): 1.161; Replicate_1 (sheet LOPAC_screen_w_protease, LOPAC1280 at 5 µM, replicate 1): -0.3816; Replicate_2 (sheet LOPAC_screen_w_protease, LOPAC1280 at 5 µM, replicate 2): 2.703

**Q.** `CCCCNc1ccc(C(=O)OCCN(C)C)cc1` [Tetracaine hydrochloride] was tested. Which inhibition at 5 µM [4] did it give?
**A.** -0.191%

**Q.** What about the inhibition at 5 µM [5] of the same molecule?
**A.** 0.225%

**Q.** And the inhibition at 5 µM [6]?
**A.** -0.607%

**Q.** For `CCCCCCCCCCCCCCSCC(=O)O` [Tetradecylthioacetic acid], which inhibition at 5 µM (sheet LOPAC_screen_w_protease, LOPAC1280 primary screen at 5 µM, with protease, mean of two replicates, read-out: mean) is on record?
**A.** -1.74%

**Q.** What about the inhibition at 5 µM [7] of the same molecule?
**A.** -1.66%

**Q.** And the inhibition at 5 µM [8]?
**A.** -1.82%

**Q.** For `CC[N+](CC)(CC)CC` [Tetraethylammonium chloride], which inhibition at 5 µM (read-out: Replicate_1) is on record?
**A.** 2.25%

**Q.** And the inhibition at 5 µM (read-out: Replicate_2)?
**A.** -1.51%

**Q.** What about the inhibition at 5 µM (read-out: mean) of the same molecule?
**A.** 0.374%

**Q.** With `c1ccc2c(c1)CCCC2C1=NCCN1` (stereo not drawn) [Tetrahydrozoline hydrochloride] as the molecule, how does the inhibition at 5 µM (sheet LOPAC_screen_w_protease, primary screen with protease, mean of two replicates, read-out: mean) read?
**A.** 2.26%

**Q.** What about the inhibition at 5 µM (sheet LOPAC_screen_w_protease, primary screen with protease, replicate 1, read-out: Replicate_1) of the same molecule?
**A.** 1.87%

**Q.** What about the inhibition at 5 µM (sheet LOPAC_screen_w_protease, primary screen with protease, replicate 2, read-out: Replicate_2) of the same molecule?
**A.** 2.65%

**Q.** `CC(C)NP(=O)(NC(C)C)OP(=O)(NC(C)C)NC(C)C` [Tetraisopropyl pyrophosphoramide] was tested. Which inhibition at 5 µM (read-out: Replicate_1) did it give?
**A.** 1.18%

**Q.** What about the inhibition at 5 µM (read-out: Replicate_2) of the same molecule?
**A.** -0.275%

**Q.** What about the inhibition at 5 µM (read-out: mean) of the same molecule?
**A.** 0.452%

**Q.** Which inhibition at 5 µM (read-out: Replicate_1) does the source give for `c1ccc(C2CN3CCSC3=N2)cc1` (stereo not drawn) [Tetramisole hydrochloride] here?
**A.** 1.43%

**Q.** And the inhibition at 5 µM (read-out: Replicate_2)?
**A.** -2.01%

**Q.** And the inhibition at 5 µM (read-out: mean)?
**A.** -0.287%

**Q.** Which inhibition at 5 µM (sheet LOPAC_screen_w_protease, LOPAC1280 primary screen at 5 µM, with protease, mean of the two replicates, read-out: mean) does the source give for `C/C=C(/C)C(=O)O[C@H]1C(C)=C2[C@H]([C@@H]1OC(=O)CCCCCCC)[C@@](C)(OC(C)=O)C[C@H](OC(=O)CCC)[C@@]1(O)[C@H]2OC(=O)[C@@]1(C)O` [Thapsigargin] here?
**A.** 0.567%

**Q.** And the inhibition at 5 µM [7]?
**A.** 2.46%

**Q.** And the inhibition at 5 µM [8]?
**A.** -1.32%

**Q.** Which inhibition at 5 µM (sheet LOPAC_screen_w_protease, primary screen of LOPAC1280 at 5 µM with protease, mean of the two replicates, read-out: mean) does the source give for `Cn1cnc2c1c(=O)[nH]c(=O)n2C` [Theobromine] here?
**A.** 3.53%

**Q.** And the inhibition at 5 µM (sheet LOPAC_screen_w_protease, primary screen of LOPAC1280 at 5 µM with protease, replicate 1, read-out: Replicate_1)?
**A.** 4.5%

**Q.** And the inhibition at 5 µM (sheet LOPAC_screen_w_protease, primary screen of LOPAC1280 at 5 µM with protease, replicate 2, read-out: Replicate_2)?
**A.** 2.55%

**Q.** Which results are given for `NC(=S)c1ccc[n+]([C@@H]2O[C@@H](COP(=O)([O-])OP(=O)(O)OC[C@H]3O[C@@H](n4cnc5c(N)ncnc54)C(OP(=O)([O-])O)[C@H]3O)C(O)C2O)c1.[Na+]` (stereo partly drawn) [Thio-NADP sodium]?
**A.** mean (LOPAC_screen_w_protease) [9]: 1.323; Replicate_1 (LOPAC_screen_w_protease) [10]: 2.439; Replicate_2 (LOPAC_screen_w_protease) [11]: 0.2062

**Q.** Which inhibition at 5 µM (sheet LOPAC_screen_w_protease, LOPAC1280 primary screen with protease, 5 µM compound, mean of the two replicates, read-out: mean) does the source give for `C=C/C(C)=C/[C@@]1(C)SC(=O)C(C)=C1O` [Thiolactomycin] here?
**A.** 4.16%

**Q.** What about the inhibition at 5 µM (sheet LOPAC_screen_w_protease, LOPAC1280 primary screen with protease, 5 µM compound, replicate 1, read-out: Replicate_1) of the same molecule?
**A.** 2.88%

**Q.** And the inhibition at 5 µM (sheet LOPAC_screen_w_protease, LOPAC1280 primary screen with protease, 5 µM compound, replicate 2, read-out: Replicate_2)?
**A.** 5.43%

**Q.** What does the source list for `S=C(NC1CCCCC1)N1CCC(c2cnc[nH]2)CC1` [Thioperamide maleate]?
**A.** inhibition at 5 µM [4]: -0.179%; inhibition at 5 µM [5]: -0.586%; inhibition at 5 µM [6]: 0.227%

**Q.** What does the source list for `CSc1ccc2c(c1)N(CCC1CCCCN1C)c1ccccc1S2` (stereo not drawn) [Thioridazine hydrochloride]?
**A.** inhibition at 5 µM (read-out: Replicate_1): 0.0861%; inhibition at 5 µM (read-out: Replicate_2): 0.816%; inhibition at 5 µM (read-out: mean): 0.451%

**Q.** Which results are given for `CN1CCN(CC/C=C2/c3ccccc3Sc3ccc(S(=O)(=O)N(C)C)cc32)CC1.Cl` [Thiothixene hydrochloride]?
**A.** mean (LOPAC_screen_w_protease) [9]: 1.56; Replicate_1 (LOPAC_screen_w_protease) [10]: 2.053; Replicate_2 (LOPAC_screen_w_protease) [11]: 1.066
